Source: ChEMBL document CHEMBL1201862, “PubChem BioAssay data set” (2004)
Calls of active or inactive are those of the source.

How the values were obtained:
[1] = system: HEK293; test: cells; assay type: functional, cell-based; details: Homo sapiens
[2] = system: HEK293; test: inhibition of NOD1-driven NF-kB reporter – cell-based, luminescence, uHTS, primary screen (AID 1578); assay type: functional; details: Homo sapiens
[3] = system: HEK293; test: cells; assay type: functional, cell-based; details: Homo sapiens; remark: listed apart in the source
[4] = target: COUP transcription factor 2 (Homo sapiens, UniProt P24468); test: Luminescence-based cell-based high throughput dose response assay to identify inhibitors of COUP-TFII (NR2F2).; assay type: functional;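 note: HEK293 cells transiently cotransfected with COUP-TFII expression vector and reporter; luciferase reporter luminescence driven by COUP-TFII from the pX2-168 reporter plasmid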
[5] = system: HT-1080; test: HT1080 cell viability loss – fluorescence readout (AID 620); assay type: functional, cell-based; details: Homo sapiens
[6] = system: HEK293; test: cells; assay type: functional, cell-based; details: Homo sapiens; remark: listed apart in the source
[7] = Luminescence Cell-Based Dose Retest to Confirm Inhibitors of Cancer Stem Cells. [Related pubchem assays (depositor defined):AID2717, AID2721]; assay type: functional; details: Homo sapiens
[8] = target: Nucleotide-binding oligomerization domain-containing protein 2 (Homo sapiens, UniProt Q9HC29); test: inhibition of NOD2-driven NF-kB reporter – cell-based, luminescence, uHTS, HEK293 (AID 1566); assay type: functional
[9] = target: Luciferin 4-monooxygenase (Photinus pyralis, UniProt P08659); test: Counter Screen for Luciferase-based Assay Positives. [Related pubchem assays: 620, 618, 411 ]
[10] = system: HEK293; test: NOD2 signaling inhibitors in MDP-stimulated cells, cell-based, uHTS, luminescence (AID 2001); assay type: functional; details: Homo sapiens
[11] = target: T1, Tyrosine-protein phosphatase non-receptor type 7 (Homo sapiens, UniProt P35236); test: HePTP tyrosine phosphatase activity blockers – biochemical, absorbance, leukemia target, primary screen (AID 521); assay type: functional
T1 sequence (P35236 whole entry): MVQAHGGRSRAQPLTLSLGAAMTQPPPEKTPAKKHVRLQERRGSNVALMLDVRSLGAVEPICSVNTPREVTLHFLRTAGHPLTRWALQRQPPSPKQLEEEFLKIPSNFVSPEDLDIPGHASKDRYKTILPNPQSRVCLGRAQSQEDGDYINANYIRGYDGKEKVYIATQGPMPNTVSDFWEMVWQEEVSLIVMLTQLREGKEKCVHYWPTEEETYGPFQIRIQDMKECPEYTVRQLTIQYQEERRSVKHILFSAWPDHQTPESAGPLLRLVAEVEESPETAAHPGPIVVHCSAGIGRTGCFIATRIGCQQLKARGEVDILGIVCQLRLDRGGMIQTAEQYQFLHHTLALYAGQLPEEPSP

[12] = potency of ADAM10 substrate cleavage blockers – biochemical, QFRET, dose response (AID 743254);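 note: ADAM10 enzyme with the DM2 quenched FRET peptide as substrate; EDANS fluorescence gain as the protease cuts the substrate; inhibitor potency against ADAM10 proteolytic activity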
[13] = target: Disintegrin and metalloproteinase domain-containing protein 17 (Homo sapiens, UniProt P78536); test: inhibition of ADAM17 substrate cleavage – biochemical, quenched FRET substrate, counter-screen for ADAM10 exosite inhibitor project, dose response (AID 743253)
[14] = target: NAD-dependent protein deacylase sirtuin-5, mitochondrial (Homo sapiens, UniProt Q9NXA8); test: sirtuin-5 deacylation blockers, concentration series – biochemical, fluorescence imaging, cherry-pick, set 5, dose response (AID 720591);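 note: desuccinylation of succinyl peptide AMC substrate read as fluorescence after trypsin release; potency of inhibitors that lower fluorescence and may act on trypsin instead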
[15] = Dd2 parasite growth inhibition in erythrocytes – SYBR Green, dry powder samples, set 9, dose response (AID 1159568); assay type: functional, cell-based

COUP transcription factor 2, sequence (P24468 whole entry): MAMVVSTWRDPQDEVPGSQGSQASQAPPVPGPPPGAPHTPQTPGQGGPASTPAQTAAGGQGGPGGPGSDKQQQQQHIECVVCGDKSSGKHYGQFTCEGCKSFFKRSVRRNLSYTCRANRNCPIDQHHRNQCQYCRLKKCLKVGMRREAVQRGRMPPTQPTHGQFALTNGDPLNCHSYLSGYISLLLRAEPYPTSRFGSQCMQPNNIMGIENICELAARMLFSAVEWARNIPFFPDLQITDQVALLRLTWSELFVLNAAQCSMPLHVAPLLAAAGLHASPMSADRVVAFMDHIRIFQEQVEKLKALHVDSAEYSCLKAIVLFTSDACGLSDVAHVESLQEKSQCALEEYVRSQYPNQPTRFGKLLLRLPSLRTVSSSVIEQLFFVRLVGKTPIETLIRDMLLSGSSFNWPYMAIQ
Disintegrin and metalloproteinase domain-containing protein 17, sequence (P78536 whole entry, the tested form may be a part): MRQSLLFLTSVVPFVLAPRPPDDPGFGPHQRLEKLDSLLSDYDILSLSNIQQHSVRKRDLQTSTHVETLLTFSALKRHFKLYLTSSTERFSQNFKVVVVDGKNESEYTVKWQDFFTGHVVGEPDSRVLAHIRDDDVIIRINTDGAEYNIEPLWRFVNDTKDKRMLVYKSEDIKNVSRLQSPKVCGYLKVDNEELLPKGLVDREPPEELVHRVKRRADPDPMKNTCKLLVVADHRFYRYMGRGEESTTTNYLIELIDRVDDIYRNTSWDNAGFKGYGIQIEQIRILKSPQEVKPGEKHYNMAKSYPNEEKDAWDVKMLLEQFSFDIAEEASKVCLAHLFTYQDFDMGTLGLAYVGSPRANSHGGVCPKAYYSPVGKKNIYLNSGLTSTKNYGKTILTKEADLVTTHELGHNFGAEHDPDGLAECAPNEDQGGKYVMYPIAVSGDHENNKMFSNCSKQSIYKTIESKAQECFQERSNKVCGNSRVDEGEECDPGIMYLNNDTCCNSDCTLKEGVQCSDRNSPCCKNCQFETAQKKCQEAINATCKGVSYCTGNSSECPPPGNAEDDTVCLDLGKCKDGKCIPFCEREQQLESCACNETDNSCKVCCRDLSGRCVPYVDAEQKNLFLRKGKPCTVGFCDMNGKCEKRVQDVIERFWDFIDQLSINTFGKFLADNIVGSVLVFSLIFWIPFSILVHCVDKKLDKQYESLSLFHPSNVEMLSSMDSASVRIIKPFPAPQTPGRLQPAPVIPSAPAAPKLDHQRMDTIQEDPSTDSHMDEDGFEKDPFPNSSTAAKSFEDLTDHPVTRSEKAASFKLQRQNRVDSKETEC
Luciferin 4-monooxygenase, sequence (P08659 whole entry): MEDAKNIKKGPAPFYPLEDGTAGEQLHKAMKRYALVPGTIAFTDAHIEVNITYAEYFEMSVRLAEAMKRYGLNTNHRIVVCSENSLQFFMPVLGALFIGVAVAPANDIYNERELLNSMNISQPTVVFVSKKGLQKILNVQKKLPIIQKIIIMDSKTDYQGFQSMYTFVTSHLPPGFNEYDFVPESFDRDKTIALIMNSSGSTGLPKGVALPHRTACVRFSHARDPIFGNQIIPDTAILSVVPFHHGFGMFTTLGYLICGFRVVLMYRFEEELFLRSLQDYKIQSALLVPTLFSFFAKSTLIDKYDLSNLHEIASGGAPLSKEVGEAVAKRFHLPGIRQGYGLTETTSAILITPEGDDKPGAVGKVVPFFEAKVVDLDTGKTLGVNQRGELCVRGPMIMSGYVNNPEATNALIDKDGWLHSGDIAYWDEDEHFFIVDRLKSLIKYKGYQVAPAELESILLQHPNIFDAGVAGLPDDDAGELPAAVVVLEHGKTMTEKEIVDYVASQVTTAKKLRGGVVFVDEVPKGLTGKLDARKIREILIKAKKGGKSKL
NAD-dependent protein deacylase sirtuin-5, mitochondrial, sequence (Q9NXA8 whole entry): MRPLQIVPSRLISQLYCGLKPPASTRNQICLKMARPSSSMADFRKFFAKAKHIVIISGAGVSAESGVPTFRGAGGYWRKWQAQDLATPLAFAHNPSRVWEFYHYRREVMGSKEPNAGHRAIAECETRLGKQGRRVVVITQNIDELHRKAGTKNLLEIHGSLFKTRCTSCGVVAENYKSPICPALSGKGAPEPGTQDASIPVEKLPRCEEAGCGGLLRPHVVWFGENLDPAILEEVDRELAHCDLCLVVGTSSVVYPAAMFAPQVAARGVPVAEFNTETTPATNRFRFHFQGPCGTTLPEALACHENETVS
Nucleotide-binding oligomerization domain-containing protein 2, sequence (Q9HC29 whole entry, the tested form may be a part): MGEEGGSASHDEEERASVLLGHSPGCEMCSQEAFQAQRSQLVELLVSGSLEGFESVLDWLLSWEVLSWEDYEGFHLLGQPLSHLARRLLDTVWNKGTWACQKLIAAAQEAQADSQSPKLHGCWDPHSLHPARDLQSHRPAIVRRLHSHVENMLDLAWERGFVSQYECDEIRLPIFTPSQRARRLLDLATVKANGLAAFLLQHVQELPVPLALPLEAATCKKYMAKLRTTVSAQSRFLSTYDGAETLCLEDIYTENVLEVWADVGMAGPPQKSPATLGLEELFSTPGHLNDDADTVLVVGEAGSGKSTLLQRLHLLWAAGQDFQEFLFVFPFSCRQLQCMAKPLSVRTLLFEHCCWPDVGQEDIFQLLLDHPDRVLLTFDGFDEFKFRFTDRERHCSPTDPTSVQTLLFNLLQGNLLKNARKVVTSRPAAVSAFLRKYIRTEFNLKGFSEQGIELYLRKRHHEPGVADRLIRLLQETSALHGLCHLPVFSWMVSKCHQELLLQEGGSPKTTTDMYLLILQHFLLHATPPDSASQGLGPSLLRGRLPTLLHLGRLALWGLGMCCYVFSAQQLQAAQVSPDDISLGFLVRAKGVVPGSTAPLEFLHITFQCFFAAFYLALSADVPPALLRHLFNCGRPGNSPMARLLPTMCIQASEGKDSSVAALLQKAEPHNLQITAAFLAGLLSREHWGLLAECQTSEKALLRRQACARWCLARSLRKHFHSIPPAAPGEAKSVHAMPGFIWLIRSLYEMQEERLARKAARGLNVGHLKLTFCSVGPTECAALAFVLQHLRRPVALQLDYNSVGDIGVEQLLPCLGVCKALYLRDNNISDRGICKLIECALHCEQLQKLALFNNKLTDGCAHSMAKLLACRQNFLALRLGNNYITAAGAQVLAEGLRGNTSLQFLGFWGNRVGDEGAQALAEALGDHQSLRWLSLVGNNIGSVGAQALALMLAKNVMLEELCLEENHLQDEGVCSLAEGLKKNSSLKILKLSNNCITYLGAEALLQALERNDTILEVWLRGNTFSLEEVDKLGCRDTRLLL

In the case of `CC(=O)Nc1ccc(SCC(=O)c2cc(C)n(Cc3cccs3)c2C)cc1`, the IC50 [1] is reported as > 20 µM (inactive), the EC50 [2] is reported as > 20 µM (inactive) and the IC50 [3] is reported as > 20 µM (inactive). For the same compound, the IC50 [4] was 23.6 µM (inactive), the EC50 [5] was > 50 µM (not active) and the IC50 [6] was > 20 µM (inactive). The AC50 [7] was 1.77 µM (active), the EC50 [8] was > 20 µM (inactive) and the EC50 [9] was 3.59 µM (active). The IC50 [10] was > 20 µM (inactive).
For `COn1cnnc1-c1ccccc1`, the IC50 [11] was > 100 µM (not active).
For `Oc1ccc(C[C@H]2CNC(=S)N2CC2CCCN2C[C@H](Cc2ccccc2)N2C[C@H](Cc3ccc(O)cc3)N(CC3CCCCC3)C2=S)cc1` (some centres not stated), the IC50 [12] was 7.86 µM (active) and the IC50 [13] was > 69.5 µM (inactive).
For `CCCCC[C@@H](C)N1C[C@H](COCc2ccccc2)Oc2cc(N3CCC[C@@H]3CO)ccc2S1(=O)=O`, the AC50 [14] was > 30 µM (inactive).
In the case of `COc1ccc(C(=O)C2CCN(c3ncnc4sccc34)CC2)cc1`, the IC50 [4] is reported as 1.77 µM (active).
With `COc1ccc2c3c([nH]c2c1)[C@H](CO)N(C(C)=O)CC31CN(Cc2ccccc2Cl)C1` the AC50 [15] was 3 µM (active).
For `Cc1ccc(S(=O)(=O)N2CC[C@H]3[C@H](CO)Nc4ccc(-c5cccc(C(=O)N(C)C)c5)cc4[C@H]32)cc1`, the AC50 [15] was 3.07 µM (active).
